Experimental data from patent US4705799A, “Aminomethyl oxooxazolidinyl benzenes useful as antibacterial agents” (E. I. Du Pont de Nemours and Company, priority 1985, dated 1987).
Values after ≈ are worked out from the molar mass of the structure shown.

Tests used:
Escherichia coli [1] = assay: In vitro broth dilution minimal inhibitory concentration (standard microdilution method); type: cell-based; settings: for MIC: Escherichia coli, Mueller-Hinton broth, 24-hour, read-out: Microdilution Broth MIC
[2] = tested on: Staphylococcus epidermidis; assay: as above; type: cell-based; settings: 24 h, Mueller-Hinton broth, 24-hour, read-out: Microdilution Broth MIC
Staphylococcus aureus [3] = assay: In vivo efficacy of compounds administered subcutaneously in mouse intraperitoneal infections; settings: sc, 168 h; mouse i.p. Staphylococcus aureus infection; subcutaneous; dosed at infection and 4 h post-infection; 7 days; read-out: ED50 (50 percent effective dose)
Staphylococcus aureus [4] = assay: In vivo efficacy of orally administered compounds in mouse intraperitoneal infections; settings: for ED50: Staphylococcus aureus, po, 168 h, mouse i.p. Staphylococcus aureus infection, oral, dosed at infection and 4 h post-infection, 7 days, read-out: ED50 (50 percent effective dose)
Staphylococcus aureus [5] = assay: In vitro test, same procedures as microdilution MIC; type: cell-based; settings: same procedures as Table 9
From the text: It is believed that the compound of Example 123 would provide control at higher concentrations or under different conditions.

[6] = Water solubility (observation); type: physicochemical
Escherichia coli [7] = assay: In vivo efficacy of compounds administered subcutaneously in mouse intraperitoneal infections; settings: sc, 168 h; mouse i.p. Escherichia coli infection; subcutaneous; dosed at infection and 4 h post-infection; 7 days; read-out: ED50 (50 percent effective dose)
Escherichia coli [8] = assay: In vivo efficacy of orally administered compounds in mouse intraperitoneal infections; settings: 168 h; mouse i.p. Escherichia coli infection; oral; dosed at infection and 4 h post-infection; 7 days; read-out: ED50 (50 percent effective dose)

Row | SMILES | MIC (Escherichia coli [1]) [µg/mL] | MIC [2] [µg/mL] | water solubility [6] | control of Escherichia coli in vitro (Escherichia coli [1]; same procedures as Table 9, result in words) | ED50 (Staphylococcus aureus [3]) [mg/kg] | ED50 (Staphylococcus aureus [4]) [mg/kg] | antibacterial effect in vivo (Staphylococcus aureus [4]; in vivo, see Tables 10 and 11) | control of Staphylococcus aureus in vitro (Staphylococcus aureus [5]) | ED50 (Escherichia coli [7]) [mg/kg] | ED50 (Escherichia coli [8]) [mg/kg]
1 | CCCCCCN(CC1CN(c2ccc(S(C)(=O)=O)cc2)C(=O)O1)C(=O)OC (racemic) [Example 123, (dl)-N-hexyl-N-[3-[4-(methylsulfonyl)phenyl]-2-oxooxazolidin-5-ylmethyl]carbamic acid, methyl ester] | > 200 | > 200 |  | no control | 46.6 | 27.6 | found to exhibit an antibacterial effect in vivo | no control |  | 
2 | CC(=O)c1ccc(N2CC(CNC(=O)CCCl)OC2=O)cc1 (stereo not drawn) [Example 95] | > 200 | 12.5 (≈ 38.5 µM) |  |  | 7.7 | 10.9 |  |  | 60.7 | > 120
3 | CCCC(=O)c1ccc(N2CC(CNC(C)=O)OC2=O)cc1 (stereo not drawn) [Example 138, l-N-[2-oxo-3-[4-(1-oxobutyl)phenyl]-5-oxazolidinylmethyl]acetamide] | > 128 | 1 (≈ 3.29 µM) |  |  | 5.1 | 9.6 |  |  | > 120 | > 120
4 | CC(=O)NCC1CN(c2ccc(C(C)=O)c(C)c2)C(=O)O1 (stereo not drawn) [Example 142] | > 128 | 1 (≈ 3.44 µM) |  |  | 1.8 | 1.8 |  |  | 52.1 | 52.1
5 | CC(=O)c1ccc(N2CC(CNC(=O)C(Cl)Cl)OC2=O)cc1 (stereo not drawn) [Example 172] | > 128 | 4 (≈ 11.6 µM) |  |  | 13.6 | 10.2 |  |  | > 120 | > 120

Now from value to molecule, other results behind:

Row | MIC (Escherichia coli [1]) [µg/mL] | MIC [2] [µg/mL] | water solubility [6] | SMILES | control of Escherichia coli in vitro (Escherichia coli [1]; same procedures as Table 9, result in words) | ED50 (Staphylococcus aureus [3]) [mg/kg] | ED50 (Staphylococcus aureus [4]) [mg/kg] | antibacterial effect in vivo (Staphylococcus aureus [4]; in vivo, see Tables 10 and 11) | control of Staphylococcus aureus in vitro (Staphylococcus aureus [5]) | ED50 (Escherichia coli [7]) [mg/kg] | ED50 (Escherichia coli [8]) [mg/kg]
6 | > 200 | 200 (≈ 611 µM) | quite water soluble | CC(=O)NCC1CN(c2ccc(NS(C)(=O)=O)cc2)C(=O)O1 (single isomer, unassigned) [Example 151, (l)-N-[3-[4-(Methylsulfonylamino)phenyl]-2-oxooxazolidin-5-ylmethyl]acetamide] |  | 9.7 | 62.9 |  |  |  | 
7 | > 200 | 200 (≈ 563 µM) |  | COC(=O)NCC1CN(c2ccc(S(=O)(=O)N=[N+]=[N-])cc2)C(=O)O1 (stereo not drawn) [Example 117] |  | 7.2 | 16.1 |  |  | > 120 | > 120
8 | 25 (≈ 86.1 µM) | 0.4 (≈ 1.38 µM) |  | CCC(=O)c1ccc(N2CC(CNC(C)=O)OC2=O)cc1 (stereo not drawn) [Example 134, l-N-[2-oxo-3-[4-(1-oxopropyl)phenyl]-5-oxazolidinylmethyl]acetamide] |  | < 4.4 | < 4.4 |  |  | 42.1 | 46.9
9 | 100 (≈ 322 µM) | 0.15 (≈ 0.483 µM) |  | CC(=O)NCC1CN(c2ccc(C(=O)CCl)cc2)C(=O)O1 (stereo not drawn) [Example 135, l-N-[3-[4-(chloroacetyl)phenyl]-2-oxo-5-oxazolidinylmethyl]acetamide] |  | < 4.4 | < 4.4 |  |  | 100 | 100
10 | 50 (≈ 141 µM) | 6.3 (≈ 17.8 µM) |  | CS(=O)(=O)c1ccc(N2CC(CNC(=O)CN=[N+]=[N-])OC2=O)cc1 (stereo not drawn) [Example 158] |  | < 13 | 11.4 |  |  | 25 | 56.5
